Source: patent publication US9493438B2, “4,4-difluoro-piperidine-compounds” (ROTTAPHARM BIOTECH S.R.L., priority 2012, dated 2016)

Tests used:
[1] = target: T1, human OX2 receptors (Homo sapiens, UniProt O43614); assay: antagonistic activity against human OX2 receptor, [Ca2+]i fluorimetry in transfected HEK-293 cells; type: cell-based; conditions: read-out: PKb OX2 (converted)
T1 construct: expressed in transfected cells; host or cells: HEK-293 cells
T1 sequence (O43614 1-444): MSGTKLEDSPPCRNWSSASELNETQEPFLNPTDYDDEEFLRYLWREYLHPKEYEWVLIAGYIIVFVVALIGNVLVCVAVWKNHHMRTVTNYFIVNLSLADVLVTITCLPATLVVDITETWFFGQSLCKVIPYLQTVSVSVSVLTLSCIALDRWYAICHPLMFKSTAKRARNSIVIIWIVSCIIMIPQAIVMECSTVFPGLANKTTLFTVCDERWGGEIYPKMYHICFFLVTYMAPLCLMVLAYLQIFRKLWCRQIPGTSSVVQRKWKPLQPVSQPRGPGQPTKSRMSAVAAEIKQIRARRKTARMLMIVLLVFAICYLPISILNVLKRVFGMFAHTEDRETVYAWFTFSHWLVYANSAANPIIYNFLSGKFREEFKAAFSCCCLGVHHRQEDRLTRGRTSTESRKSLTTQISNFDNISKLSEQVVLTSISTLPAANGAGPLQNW
Procedure: (§1) Thus the plate was loaded with the calcium dye (Fluo-4NW/probenecid in HBSS, Hepes 20 mM, pH 7.4; Invitrogen) at 37° C. for 60 min. Afterward the temperature was equilibrated at 22° C. for 15 min and the [Ca2+]i measured directly on the plate by using a fluorescent plate reader (CeliLux Perkin Elmer).
(§2) Invention compounds were dissolved in DMSO, diluted in HBSS (DMSO, 0.3% final) and added to the wells. After 5 min CHO cells were activated with orexin-A, 3 nM while HEK-293 cells were activated with orexin-B, 10 nM. […] The antagonistic activity has been expressed as pKb (co-logarithm of the apparent dissociation constant calculated by using the modified Cheng Prusoff equation). The results are expressed as percent of control specific […] response ((measured specific response/control specific agonist response)×100) obtained in the presence of the test compounds.
(§3) The IC50 values (concentration causing a half-maximal inhibition of the control specific agonist response) were determinated by non-linear regression analysis of the concentration curves generated with mean replicate values using hill equation curve fitting. The IC50 values are obtained by the arithmetical mean of at least two experiments.

[2] = target: T2, human OX1 receptors (Homo sapiens, UniProt O43613); assay: antagonistic activity against human OX1 receptor, [Ca2+]i fluorimetry in transfected CHO cells; type: cell-based; conditions: CHO cells transfected with human recombinant OX1; activated with orexin-A 3 nM; pKb = co-logarithm of apparent dissociation constant (modified Cheng Prusoff)
T2 construct: expressed in transfected cells; host or cells: CHO cells
T2 sequence (O43613 1-425): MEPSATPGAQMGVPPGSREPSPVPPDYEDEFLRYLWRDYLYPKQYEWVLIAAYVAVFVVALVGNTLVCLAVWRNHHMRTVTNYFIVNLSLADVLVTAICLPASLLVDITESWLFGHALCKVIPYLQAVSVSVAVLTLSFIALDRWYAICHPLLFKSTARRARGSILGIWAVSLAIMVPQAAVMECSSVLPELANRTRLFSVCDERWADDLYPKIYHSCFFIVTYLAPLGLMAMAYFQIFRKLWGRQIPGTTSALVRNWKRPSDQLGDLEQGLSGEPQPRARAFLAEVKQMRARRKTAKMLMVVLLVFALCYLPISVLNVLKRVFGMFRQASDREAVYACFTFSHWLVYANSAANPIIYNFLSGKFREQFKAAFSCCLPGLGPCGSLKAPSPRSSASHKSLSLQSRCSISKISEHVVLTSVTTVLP
Procedure: as §1, §2, §3

Row | Compound | Kb [1] | Kb [2] | PKb OX1 [2]
1 | COc1ccc(OC)c(C(=O)N2CCC(F)(F)CC2CNc2ccc(Cl)cn2)c1 (racemic) [Compound 11, (RS)(2-(((5-chloropyridin-2-yl)amino)methyl)-4,4-difluoropiperidin-1-yl)(2,5-dimethoxyphenyl)methanone] | 10000 nM | 7.94 nM | 
2 | CN(C)c1ccc(-c2ccccc2)c(C(=O)N2CCC(F)(F)CC2CNc2ccc(Cl)cn2)c1 (racemic) [Compound 18, (RS)(2-(((5-chloropyridin-2-yl)amino)methyl)-4,4-difluoropiperidin-1-yl)(4-(dimethylamino)-[1,1′-biphenyl]-2-yl)methanone] | 1000 nM | 31.6 nM | 
3 | O=C(c1cccc2cccnc12)N1CCC(F)(F)CC1CNc1ccc(Cl)cn1 (racemic) [Compound 25, (RS)(2-(((5-chloropyridin-2-yl)amino)methyl)-4,4-difluoropiperidin-1-yl)(quinolin-8-yl)methanone] | 10000 nM | 0.794 nM | 
4 | N#Cc1ccc(-c2ncccn2)c(C(=O)N2CCC(F)(F)CC2CNc2ccc(Cl)cn2)c1 (racemic) [Compound 27, (RS)3-(2-(((5-chloropyridin-2-yl)amino)methyl)-4,4-difluoropiperidin-1-carbonyl)-4-(pyrimidin-2-yl)benzonitrile] | 10000 nM | 1.58 nM | 
5 | Cc1ccc(-c2ncccn2)c(C(=O)N2CCC(F)(F)CC2CNc2ncc(C(F)(F)F)cc2F)n1 (racemic) [Compound 31, (RS)(4,4-difluoro-2-(((3-fluoro-5-(trifluoromethyl)pyridin-2-yl)amino)methyl)piperidin-1-yl)(6-methyl-3-(pyrimidin-2-yl)pyridin-2-yl)methanone] | 10000 nM | 3.98 nM | 
6 | Cc1ccc(-n2nccn2)c(C(=O)N2CCC(F)(F)CC2CNc2nc(C)cc(C)n2)c1 (single isomer, unassigned; isomer a) [Compound 4, (2-(((4,6-dimethylpyrimidin-2-yl)amino)methyl)-4,4-difluoropiperidin-1-yl)(5-methyl-2-(2H-1,2,3-triazol-2-yl)phenyl)methanone (isomer A)] | 200 nM | 2.51 nM | 
7 | Cc1ccc(-c2ncccn2)c(C(=O)N2CCC(F)(F)CC2CNc2ccc(Cl)cn2)n1 (single isomer, unassigned; isomer a) [Compound 16, (2-(((5-chloropyridin-2-yl)amino)methyl)-4,4-difluoropiperidin-1-yl)(6-methyl-3-(pyrimidin-2-yl)pyridin-2-yl)methanone (isomer A)] | 10000 nM | 0.631 nM | 
8 | Cc1ccc(-c2ncccn2)c(C(=O)N2CCC(F)(F)CC2CNc2ccc(C(F)(F)F)cn2)n1 (single isomer, unassigned; isomer a) [Compound 20, (4,4-difluoro-2-(((5-(trifluoromethyl)pyridin-2-yl)amino)methyl)piperidin-1-yl)(6-methyl-3-(pyrimidin-2-yl)pyridin-2-yl)methanone (isomer A)] | 316 nM | 0.794 nM | 
9 | O=C(c1cccc2cccnc12)N1CCC(F)(F)CC1CNc1ccc(Cl)cn1 (single isomer, unassigned; isomer a) [Compound 26, (2-(((5-chloropyridin-2-yl)amino)methyl)-4,4-difluoropiperidin-1-yl)(quinolin-8-yl)methanone (isomer A)] | 10000 nM | 1.58 nM | 
10 | Cc1ccc(-c2ncccn2)c(C(=O)N2CCC(F)(F)CC2CNc2ncc(C(F)(F)F)cc2F)n1 (single isomer, unassigned; isomer a) [Compound 32, (4,4-difluoro-2-(((3-fluoro-5-(trifluoromethyl)pyridin-2-yl)amino)methyl)piperidin-1-yl)(6-methyl-3-(pyrimidin-2-yl)pyridin-2-yl)methanone (isomer A)] | 10000 nM | 2.51 nM | 
11 | Cc1ccc(-n2nccn2)c(C(=O)N2CCC(F)(F)CC2CNc2ccc(Cl)cn2)n1 (single isomer, unassigned; isomer b) [Compound 9, (2-(((5-chloropyridin-2-yl)amino)methyl)-4,4-difluoropiperidin-1-yl)(6-methyl-3-(2H-1,2,3-triazol-2-yl)pyridin-2-yl)methanone (isomer B)] |  | 15.8 nM | 
12 | Cc1ccc(-c2ncccn2)c(C(=O)N2CCC(F)(F)CC2CNc2ccc(Cl)cn2)n1 (single isomer, unassigned; isomer b) [Compound 17, (2-(((5-chloropyridin-2-yl)amino)methyl)-4,4-difluoropiperidin-1-yl)(6-methyl-3-(pyrimidin-2-yl)pyridin-2-yl)methanone (isomer B)] |  | 100 nM | 

Continued, values first:

Row | Kb [1] | Kb [2] | PKb OX1 [2] | Compound
13 | 10000 nM | 3.16 nM |  | Cc1ccc(-c2ccccc2)c(C(=O)N2CCC(F)(F)CC2CNc2ccc(C(F)(F)F)cn2)n1 (racemic) [Compound 36, (RS)(4,4-difluoro-2-(((5-(trifluoromethyl)pyridin-2-yl)amino)methyl)piperidin-1-yl)(6-methyl-3-phenylpyridin-2-yl)methanone]
14 | 10000 nM | 31.6 nM |  | O=C(c1nc(C(F)(F)F)ccc1-c1ncccn1)N1CCC(F)(F)CC1CNc1ccc(C(F)(F)F)cn1 (racemic) [Compound 39, (RS)(4,4-difluoro-2-(((5-(trifluoromethyl)pyridin-2-yl)amino)methyl)piperidin-1-yl)(3-(pyrimidin-2-yl)-6-(trifluoromethyl)pyridin-2-yl)methanone]
15 | 10000 nM | 3.16 nM |  | Cc1ccc(-c2ccccc2)c(C(=O)N2CCC(F)(F)CC2CNc2cnc(C(F)(F)F)cn2)n1 (racemic) [Compound 43]
16 | 200 nM | 3.98 nM |  | Cc1ccc(-c2ccccc2)c(C(=O)N2CCC(F)(F)CC2CNc2ncc(C(F)(F)F)cc2F)n1 (racemic) [Compound 44, (RS)(4,4-difluoro-2-(((3-fluoro-5-(trifluoromethyl)pyridin-2-yl)amino)methyl)piperidin-1-yl)(6-methyl-3-phenylpyridin-2-yl)methanone]
17 | 10000 nM | 3.98 nM |  | Cc1ccc(OCC2CC2)c(C(=O)N2CCC(F)(F)CC2CNc2ccc(C(F)(F)F)cn2)n1 (racemic) [Compound 45, (RS)(3-(cyclopropylmethoxy)-6-methylpyridin-2-yl)(4,4-difluoro-2-(((5-(trifluoromethyl)pyridin-2-yl)amino)methyl)piperidin-1-yl)methanone]
18 | 10000 nM | 12.6 nM |  | Cc1ccc(OCc2ccccc2)c(C(=O)N2CCC(F)(F)CC2CNc2ccc(C(F)(F)F)cn2)n1 (racemic) [Compound 47, (RS)(3-(benzyloxy)-6-methylpyridin-2-yl)(4,4-difluoro-2-(((5-(trifluoromethyl)pyridin-2-yl)amino)methyl)piperidin-1-yl)methanone]
19 | 10000 nM | 6.31 nM |  | O=C(c1ncccc1-c1ccccc1)N1CCC(F)(F)CC1CNc1ccc(C(F)(F)F)cn1 (racemic) [Compound 51, (RS)(4,4-difluoro-2-((5-(trifluoromethylpyridin-2-yl)amino)methyl)piperidin-1-yl)(3-phenylpyridin-2-yl)methanone]
20 | 10000 nM | 15.8 nM |  | Cc1ccc(-c2ccccn2)c(C(=O)N2CCC(F)(F)CC2CNc2ccc(C(F)(F)F)cn2)n1 (racemic) [Compound 53, (RS)(4,4-difluoro-2-(((5-(trifluoromethyl)pyridin-2-yl)amino)methyl)piperidin-1-yl)(6′-methyl-[2,3′-bipyridin]-2′-yl)methanone]
21 | 10000 nM | 1.58 nM |  | O=C(c1nccc2ccccc12)N1CCC(F)(F)CC1CNc1ccc(C(F)(F)F)cn1 (single isomer, unassigned; isomer a) [Compound 41, (4,4-difluoro-2-(((5-(trifluoromethyl)pyridin-2-yl)amino)methyl)piperidin-1-yl)(isoquinolin-1-yl)methanone (isomer A)]
22 |  |  | 8.2 | (RS)(4,4-difluoro-2-(((5-(trifluoromethyl)pyridin-2-yl)amino)methyl)piperidin-1-yl)(6-methyl-3-(pyrimidin-2-yl)pyridin-2-yl)methanone [Compound 42]
